These results are taken from patent US8981094B2, “Piperidine/piperazine derivatives” (Janssen Pharmaceutica N.V., priority 2007, dated 2015).

SMILES strings stand for the structures. pIC50: −log10 of the molar value.

In data set [1] the target is T1, human DGAT1 (Homo sapiens, UniProt O75907).
T1 construct: FLAG (N); made in house; host or cells: SF9 insect cells (pFastBac baculovirus); total cell membranes
T1 sequence (O75907 1-488): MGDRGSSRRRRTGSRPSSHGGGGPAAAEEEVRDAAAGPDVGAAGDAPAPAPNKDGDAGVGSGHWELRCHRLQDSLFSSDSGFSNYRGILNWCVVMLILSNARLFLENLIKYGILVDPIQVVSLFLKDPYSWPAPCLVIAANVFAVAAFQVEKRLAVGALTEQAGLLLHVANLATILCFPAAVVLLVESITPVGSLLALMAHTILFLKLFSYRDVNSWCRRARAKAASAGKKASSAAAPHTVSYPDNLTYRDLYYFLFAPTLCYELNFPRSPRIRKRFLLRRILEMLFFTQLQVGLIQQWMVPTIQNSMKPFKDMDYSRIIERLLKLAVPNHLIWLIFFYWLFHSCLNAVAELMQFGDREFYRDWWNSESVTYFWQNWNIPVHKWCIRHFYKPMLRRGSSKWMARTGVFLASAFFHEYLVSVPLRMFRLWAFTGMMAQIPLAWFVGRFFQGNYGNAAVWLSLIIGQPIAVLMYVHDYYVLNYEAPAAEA
The data set can be described thus: Inhibition of DGAT1 activity, FlashPlate assay with DGAT1 membrane preparations and substrate micelles. It is filed as biochemical. Conditions: pIC50 = -logIC50, IC50 values expressed in M. In outline:
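FLAG-tagged human DGAT1 membranes (expressed in Sf9 cells) were incubated 120 min at 37° C. in 50 mM Tris-HCl pH 7.4 with 150 mM MgCl2, 1 mM EDTA, 0.2% BSA, 50 μM DAG micelles (PC/PS) and 8.4 μM [^3H]-oleoylCoA. The reaction was stopped with N-ethylmaleimide and read as FlashPlate radioluminescence. Responses were normalized to enzyme/no-enzyme controls to fit dose-response curves.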

As to `O=C(CC1CCCCC1)Nc1ccc(N2CCN(C(=O)Nc3c(Cl)cccc3Cl)CC2)cc1` [Compound 1], the melting point is 285.3 °C. The pIC50 in data set [1] is 8.35. On to `O=C(CCOc1ccccc1)Nc1ccc(N2CCN(C(=O)Nc3c(Cl)cccc3Cl)CC2)cc1` [Compound 3], for which the melting point came to 268.2 °C. The same compound had a pIC50 in data set [1] of 8.12. The compound `O=C(CNc1ccccc1Cl)Nc1ccc(N2CCN(C(=O)Nc3c(Cl)cccc3Cl)CC2)cc1` [Compound 4] registered a melting point of 247 to 249 °C. This compound also gave a pIC50 in data set [1] of 8.57. Compound `CC(C)(C)OC(=O)NC1(C(=O)Nc2ccc(N3CCN(C(=O)Nc4c(Cl)cccc4Cl)CC3)cc2)CCCC1` [Compound 5] gave a melting point of 242.6 °C. For the same compound, the negative-log IC50 (pIC50) in data set [1] was 6.82. The corresponding values for `C=CCN(CCC(=O)Nc1ccc(N2CCN(C(=O)Nc3c(Cl)cccc3Cl)CC2)cc1)c1ccccc1Cl` [Compound 7] are 232 to 233 °C and 8.07. The corresponding values for `CCCCCCC(=O)Nc1ccc(N2CCN(C(=O)Nc3c(Cl)cccc3Cl)CC2)cc1` [Compound 8] are 245.1 °C and 8.05. For `O=C(CCc1ccccn1)Nc1ccc(N2CCN(C(=O)Nc3c(Cl)cccc3Cl)CC2)cc1` [Compound 9], in that order: 187 to 188 °C and 6.26. In turn, `Cc1cc(C)c(NC(=O)N2CCN(c3ccc(NC(=O)CCCc4ccccc4)cc3)CC2)c(Br)c1` [Compound 11] yielded a melting point of 238.7 °C. The compound further had a pIC50 in data set [1] of 8.21. The corresponding values for `O=C(CCCc1ccccc1)Nc1ccc(N2CCN(C(=O)Nc3c(Cl)ccc4c3CCO4)CC2)cc1` [Compound 12] are 209.8 °C and 6.74. Regarding `CC(C)NC(=O)N(C)CC(=O)Nc1ccc(N2CCN(C(=O)Nc3c(Cl)cccc3Cl)CC2)cc1` [Compound 14], the melting point was 217 to 219 °C. The compound also had a pIC50 in data set [1] of 6.50.

With `COc1ccc(CC(=O)Nc2ccc(N3CCN(C(=O)Nc4c(Cl)cc(O)cc4Cl)CC3)cc2)cc1` [Compound 16], the melting point lay in the range of 183 to 184 °C. The pIC50 in data set [1] is 8.33. `O=C(CCCc1ccccc1)Nc1ccc(N2CCN(/C=C/C(=O)c3c(Cl)cccc3Cl)CC2)cc1` [Compound 18] came in with a melting point of 178.2 °C. In addition, the pIC50 in data set [1] was 6.92. With `O=C(CCCc1ccccc1)Nc1ccc(N2CCN(C(=O)C(O)c3ccccc3Cl)CC2)cc1` (centres unmarked) [Compound 19], the melting point was determined as 142.3 °C. Further, the pIC50 in data set [1] is 7.51. For `O=C(CNc1ccccc1)Nc1ccc(N2CCN(C(=O)Nc3c(Cl)cccc3Cl)CC2)cc1` [Compound 21], in that order: 244 to 246 °C and 7.14. The compound `Cc1ccc(NCC(=O)Nc2ccc(N3CCN(C(=O)Nc4c(Cl)cccc4Cl)CC3)cc2)c(C)c1` [Compound 22] had a melting point of 248 to 249 °C. Moreover, in data set [1], the negative-log IC50 (pIC50) was 7.83. The corresponding values for `CS(=O)(=O)N1CCN(CC(=O)Nc2ccc(N3CCN(C(=O)Nc4c(Cl)cccc4Cl)CC3)cc2)CC1` [Compound 26] are 232 to 234 °C and 6.16. For `O=C(CCCc1ccccc1)Nc1ccc(N2CCN(C(=O)Nc3c(Cl)cc(CO)cc3Cl)CC2)cc1` [Compound 28], in that order: 196.1 °C and 8.71. As to `CC(O)c1cc(Cl)c(NC(=O)N2CCN(c3ccc(NC(=O)CCCc4ccccc4)cc3)CC2)c(Cl)c1` (centres unmarked) [Compound 29], the melting point worked out at 187.3 °C. In data set [1], the pIC50 was 8.40.

In the case of `COc1cc(Cl)c(NC(=O)N2CCN(c3ccc(NC(=O)CNc4ccc(C)cc4C)cc3)CC2)c(Cl)c1` [Compound 31], the melting point was 175 to 176 °C. The compound further gave a pIC50 in data set [1] of 8.35. The corresponding values for `COc1ccc(CNCCC(=O)Nc2ccc(N3CCN(C(=O)Nc4c(Cl)cccc4Cl)CC3)cc2)cc1` [Compound 32] are 188 to 189 °C and 6.46. The corresponding values for `O=C(CCCc1ccccc1)Nc1ccc(N2CCN(C(=O)Nc3ccccc3Cl)CC2)cc1` [Compound 34] are 142.1 °C and 6.84. The corresponding values for `O=C(CNCc1ccc(F)cc1)Nc1ccc(N2CCN(C(=O)Nc3c(Cl)cccc3Cl)CC2)cc1` [Compound 35] are 169.9 °C and 6.62. Regarding `O=C(CNc1ccc(F)cc1)Nc1ccc(N2CCN(C(=O)Nc3c(Cl)cccc3Cl)CC2)cc1` [Compound 36], the melting point worked out at 254.2 °C. This compound also had a pIC50 in data set [1] of 7.06.

As to `CC1CN(CC(=O)Nc2ccc(N3CCN(C(=O)Nc4c(Cl)cccc4Cl)CC3)cc2)CC(C)O1` (centres unmarked) [Compound 37], the melting point came to 237.1 °C. In data set [1], this compound gave a pIC50 of 6.89. For `Cc1cc(C)cc(N2CCN(CC(=O)Nc3ccc(N4CCN(C(=O)Nc5c(Cl)cccc5Cl)CC4)cc3)CC2)c1` [Compound 41], in that order: 186.1 °C and 7.11.

On to `CN(C(=O)CCCc1ccccc1)c1ccc(N2CCN(C(=O)Nc3c(Cl)cccc3Cl)CC2)cc1` [Compound 42], for which the melting point is 175.2 °C. Further, in data set [1], the pIC50 is 5.16. Compound `COc1ccc(CC(=O)Nc2ccc([N+]3([O-])CCN(C(=O)Nc4c(Cl)cc(C[N+]5([O-])CCCC5)cc4Cl)CC3)cc2)cc1` [Compound 300] showed a pIC50 in data set [1] of 7.70. `O=C(CCC(=O)OCc1ccccc1)Nc1ccc(N2CCN(C(=O)Nc3c(Cl)cccc3Cl)CC2)cc1` [Compound 302] had a negative-log IC50 (pIC50) in data set [1] of 7.68. Still for that read-out and setting: to `O=C(CCCc1ccccc1)Nc1ccc(N2CCN(C(=O)Nc3c(Cl)cc(C(=O)NCc4ccncc4)cc3Cl)CC2)cc1` [Compound 303] belongs 7.67; to `COCCNC(=O)c1cc(Cl)c(NC(=O)N2CCN(c3ccc(NC(=O)CCCc4ccccc4)cc3)CC2)c(Cl)c1` [Compound 306], 7.58.

`COc1ccc(CC(=O)Nc2ccc(N3CCN(C(=O)Oc4c(Cl)cccc4Cl)CC3)cc2)cc1` [Compound 308] showed a pIC50 in data set [1] of 7.50. The pIC50 values of the last two compounds are within 0.2 log units of each other. The compound `O=C(CCCc1ccccc1)Nc1ccc(N2CCN(C(=O)C(O)c3ccc(F)cc3Cl)CC2)cc1` (centres unmarked) [Compound 309] had a pIC50 in data set [1] of 7.45. The same measure, in the same setting: to `O=C(CCCc1ccccc1)Nc1ccc(N2CCN(C(=O)Nc3c(Cl)cc(C(=O)NCCN4CCOCC4)cc3Cl)CC2)cc1` [Compound 310] belongs 7.43; to `CC(=O)NCCNC(=O)c1cc(Cl)c(NC(=O)N2CCN(c3ccc(NC(=O)CCCc4ccccc4)cc3)CC2)c(Cl)c1` [Compound 314], 7.29.

As for `O=C(CCCc1ccccc1)Nc1ccc(N2CCN(C(=O)C(O)c3c(Cl)cccc3Cl)CC2)cc1` (centres unmarked) [Compound 315], the pIC50 in data set [1] is 7.23. This pIC50 and that of the compound before are within 0.2 log units of each other. The same measure, in the same setting: with `CN(C)CCNC(=O)c1cc(Cl)c(NC(=O)N2CCN(c3ccc(NC(=O)CCCc4ccccc4)cc3)CC2)c(Cl)c1` [Compound 321] the figure was 7.04; with `O=C(CCCc1ccccc1)Nc1ccc(N2CCN(C(=O)C(O)c3ccc(F)cc3F)CC2)cc1` (centres unmarked) [Compound 325], 6.94. Same read-out and setting: with `O=C(CCCc1ccccc1)Nc1ccc(N2CCN(C(=O)Nc3c(Cl)cccc3Cl)CC2)c(CO)c1` [Compound 326] the figure was 6.90; with `O=C(CCCc1ccccc1)Nc1ccc(N2CCN(C(=O)C(O)c3cccc(F)c3F)CC2)cc1` (centres unmarked) [Compound 327], 6.89. For the compound `O=C(CCCc1ccccc1)Nc1ccc(N2CCN(C(=O)C(O)c3c(F)cccc3F)CC2)cc1` (centres unmarked) [Compound 330], the pIC50 in data set [1] is 6.70. The same measure, in the same setting: with `CCC(C(=O)Nc1ccc(N2CCN(C(=O)Cc3ccccc3C)CC2)cc1)c1ccccc1` (centres unmarked) [Compound 336] the figure was 6.16; with `COc1ccc(CC(=O)Nc2ccc(N3CCN(C(=O)C(N)c4ccccc4Cl)CC3)cc2)cc1` (centres unmarked) [Compound 337], 5.61; with `O=C(CCCc1ccccc1)Nc1ccc(N2CCN(C(=O)C(O)c3cccc(O)c3)CC2)cc1` (centres unmarked) [Compound 340], 5.45. The compound `O=C(CCCc1ccccc1)Nc1ccc(N2CCN(C(=O)C(O)c3ccc(F)c(F)c3)CC2)cc1` (centres unmarked) [Compound 341] gave a pIC50 in data set [1] of 5.43. Take `COc1ccc(CC(=O)Nc2ccc(N3CCN(C(=O)C4(c5c(Cl)cccc5Cl)CC4)CC3)cc2)cc1` [Compound 342]: the negative logarithm of the IC50 (pIC50) in data set [1] was 5.40. Same read-out and setting: to `O=C(CCCc1ccccc1)Nc1ccc(N2CCN(C(=O)C(O)c3ccc(F)cc3)CC2)cc1` (centres unmarked) [Compound 344] belongs 5.39; to `CC(C(=O)N1CCN(c2ccc(NC(=O)CCCc3ccccc3)cc2)CC1)c1ccc(O)cc1` (centres unmarked) [Compound 347], 5.30. The same measure, in the same setting: to `COc1cc(C(O)C(=O)N2CCN(c3ccc(NC(=O)CCCc4ccccc4)cc3)CC2)ccc1O` (centres unmarked) [Compound 348] belongs 5.28; to `O=C(CCCc1ccccc1)Nc1ccc(N2CCN(C(=O)C(O)c3ccc(Br)cc3)CC2)cc1` (centres unmarked) [Compound 349], 5.22; to `COc1ccc(CC(=O)Nc2ccc(N3CCN(C(=O)Cc4c(Cl)cc(CN5CCCC5)cc4Cl)CC3)cc2)cc1` [Compound 351], 6.61. Same read-out and setting: with `COc1ccc(CC(=O)Nc2ccc(N3CCN(C(=O)C(O)c4ccc(CN5CCCC5)cc4Cl)CC3)cc2)cc1` (centres unmarked) [Compound 352] the figure was 6.47.
